Source: the NIST ThermoML archive (doi:10.1021/je700152c)
“And” between values parts separate entries of the source, which are not always exact repeats. Equal values may be shown once. ± gives the expanded uncertainty stated by the source.

Test: molar heat capacity at saturation pressure

CCCCn1cc[n+](C)c1.Cc1ccc(S(=O)(=O)[O-])cc1 [1-butyl-3-methylimidazolium tosylate]
Details | molar heat capacity
125.01 K, Crystal 2 | 211.89 ± 2.3 J/K/mol
125.12 K, Metastable crystal | 219.77 ± 2.4 J/K/mol
125.41 K, Crystal 2 | 212.45 ± 2.3 J/K/mol
126.82 K, Crystal 2 | 214.18 ± 2.3 J/K/mol
126.86 K, Crystal 2 | 214.18 ± 2.3 J/K/mol
126.95 K, Metastable crystal | 222.38 ± 2.4 J/K/mol
127.27 K, Crystal 2 | 214.65 ± 2.3 J/K/mol
128.68 K, Crystal 2 | 216.45 ± 2.3 J/K/mol
128.72 K, Crystal 2 | 216.36 ± 2.3 J/K/mol
128.79 K, Metastable crystal | 224.93 ± 2.4 J/K/mol
129.12 K, Crystal 2 | 216.95 ± 2.3 J/K/mol
130.54 K, Crystal 2 | 218.78 ± 2.4 J/K/mol
130.57 K, Crystal 2 | 218.72 ± 2.4 J/K/mol
130.63 K, Metastable crystal | 227.59 ± 2.4 J/K/mol
130.97 K, Crystal 2 | 219.24 ± 2.4 J/K/mol
132.4 K, Crystal 2 | 221.01 ± 2.4 J/K/mol
132.43 K, Crystal 2 | 221.01 ± 2.4 J/K/mol
132.46 K, Metastable crystal | 230.26 ± 2.5 J/K/mol
132.83 K, Crystal 2 | 221.54 ± 2.4 J/K/mol
134.26 K, Crystal 2 | 223.47 ± 2.4 J/K/mol
134.29 K, Crystal 2 | 223.34 ± 2.4 J/K/mol
134.3 K, Metastable crystal | 232.84 ± 2.5 J/K/mol
134.69 K, Crystal 2 | 223.96 ± 2.4 J/K/mol
136.12 K, Crystal 2 | 225.86 ± 2.4 J/K/mol
136.14 K, Metastable crystal | 235.54 ± 2.5 J/K/mol
136.15 K, Crystal 2 | 225.83 ± 2.4 J/K/mol
136.55 K, Crystal 2 | 226.35 ± 2.4 J/K/mol
137.98 K, Crystal 2 | 228.34 ± 2.5 J/K/mol
137.98 K, Metastable crystal | 238.37 ± 2.5 J/K/mol
138.01 K, Crystal 2 | 228.37 ± 2.5 J/K/mol
138.41 K, Crystal 2 | 228.74 ± 2.5 J/K/mol
139.81 K, Metastable crystal | 241.04 ± 2.6 J/K/mol
139.84 K, Crystal 2 | 230.89 ± 2.5 J/K/mol
139.87 K, Crystal 2 | 230.85 ± 2.5 J/K/mol
140.27 K, Crystal 2 | 231.16 ± 2.5 J/K/mol
141.65 K, Metastable crystal | 243.74 ± 2.6 J/K/mol
141.7 K, Crystal 2 | 233.49 ± 2.5 J/K/mol
141.73 K, Crystal 2 | 233.37 ± 2.5 J/K/mol
142.13 K, Crystal 2 | 233.8 ± 2.5 J/K/mol
143.48 K, Metastable crystal | 246.44 ± 2.6 J/K/mol
143.56 K, Crystal 2 | 236.57 ± 2.5 J/K/mol
143.59 K, Crystal 2 | 236.07 ± 2.5 J/K/mol
143.98 K, Crystal 2 | 236.57 ± 2.5 J/K/mol
145.31 K, Metastable crystal | 249.26 ± 2.6 J/K/mol
145.41 K, Crystal 2 | 240.45 ± 2.5 J/K/mol
145.44 K, Crystal 2 | 238.96 ± 2.5 J/K/mol
145.83 K, Crystal 2 | 239.61 ± 2.5 J/K/mol
147.15 K, Metastable crystal | 251.93 ± 2.7 J/K/mol
147.26 K, Crystal 2 | 246.19 ± 2.6 J/K/mol
147.3 K, Crystal 2 | 242.18 ± 2.6 J/K/mol
147.68 K, Crystal 2 | 243.36 ± 2.6 J/K/mol
148.98 K, Metastable crystal | 254.72 ± 2.7 J/K/mol
149.09 K, Crystal 2 | 256.71 ± 2.7 J/K/mol
149.15 K, Crystal 2 | 246.16 ± 2.6 J/K/mol
149.52 K, Crystal 2 | 249.76 ± 2.7 J/K/mol
150.8 K, Metastable crystal | 257.49 ± 2.7 J/K/mol
150.89 K, Crystal 2 | 272.54 ± 2.9 J/K/mol
150.98 K, Crystal 2 | 254.94 ± 2.8 J/K/mol
151.34 K, Crystal 2 | 267.23 ± 2.8 J/K/mol
152.63 K, Metastable crystal | 260.28 ± 2.8 J/K/mol
152.68 K, Crystal 2 | 270.46 ± 2.9 J/K/mol
152.77 K, Crystal 2 | 286.32 ± 3 J/K/mol
153.11 K, Crystal 1 | 287.72 ± 3.1 J/K/mol
154.46 K, Metastable crystal | 263.04 ± 2.8 J/K/mol
154.51 K, Crystal 1 | 248.64 ± 2.7 J/K/mol
154.55 K, Crystal 1 | 265.74 ± 2.9 J/K/mol
154.91 K, Crystal 1 | 252.18 ± 2.7 J/K/mol
156.28 K, Metastable crystal | 265.84 ± 2.8 J/K/mol
156.37 K, Crystal 1 | 244.36 ± 2.6 J/K/mol
156.4 K, Crystal 1 | 246.87 ± 2.6 J/K/mol
156.77 K, Crystal 1 | 244.82 ± 2.6 J/K/mol
158.1 K, Metastable crystal | 268.6 ± 2.8 J/K/mol
158.25 K, Crystal 1 | 245.1 ± 2.6 J/K/mol
158.27 K, Crystal 1 | 245.66 ± 2.6 J/K/mol
158.64 K, Crystal 1 | 245.51 ± 2.6 J/K/mol
159.92 K, Metastable crystal | 271.3 ± 2.9 J/K/mol
160.13 K, Crystal 1 | 246.75 ± 2.6 J/K/mol
160.14 K, Crystal 1 | 247 ± 2.6 J/K/mol
160.51 K, Crystal 1 | 247.09 ± 2.6 J/K/mol
161.74 K, Metastable crystal | 273.94 ± 2.9 J/K/mol
162 K, Crystal 1 | 248.58 ± 2.6 J/K/mol
162.02 K, Crystal 1 | 248.64 ± 2.6 J/K/mol
162.38 K, Crystal 1 | 248.95 ± 2.6 J/K/mol
163.55 K, Metastable crystal | 276.55 ± 2.9 J/K/mol
163.88 K, Crystal 1 | 250.47 ± 2.6 J/K/mol
163.89 K, Crystal 1 | 250.47 ± 2.6 J/K/mol
164.25 K, Crystal 1 | 250.81 ± 2.7 J/K/mol
165.36 K, Metastable crystal | 279.12 ± 2.9 J/K/mol
165.76 K, Crystal 1 | 252.37 ± 2.7 J/K/mol and 252.4 ± 2.7 J/K/mol
166.12 K, Crystal 1 | 252.83 ± 2.7 J/K/mol
167.18 K, Metastable crystal | 281.64 ± 2.9 J/K/mol
167.63 K, Crystal 1 | 254.38 ± 2.7 J/K/mol
167.64 K, Crystal 1 | 254.38 ± 2.7 J/K/mol
168 K, Crystal 1 | 254.82 ± 2.7 J/K/mol
168.99 K, Metastable crystal | 284.12 ± 3 J/K/mol
169.51 K, Crystal 1 | 256.4 ± 2.7 J/K/mol and 256.43 ± 2.7 J/K/mol
169.87 K, Crystal 1 | 256.8 ± 2.7 J/K/mol
170.8 K, Metastable crystal | 286.54 ± 3 J/K/mol
171.38 K, Crystal 1 | 258.48 ± 2.7 J/K/mol
171.39 K, Crystal 1 | 258.39 ± 2.7 J/K/mol
171.74 K, Crystal 1 | 258.82 ± 2.7 J/K/mol
172.6 K, Metastable crystal | 288.9 ± 3 J/K/mol
173.25 K, Crystal 1 | 260.44 ± 2.8 J/K/mol
173.26 K, Crystal 1 | 260.44 ± 2.8 J/K/mol
173.61 K, Crystal 1 | 260.81 ± 2.8 J/K/mol
174.41 K, Metastable crystal | 291.14 ± 3 J/K/mol
175.13 K, Crystal 1 | 262.42 ± 2.8 J/K/mol and 262.45 ± 2.8 J/K/mol
175.48 K, Crystal 1 | 262.89 ± 2.8 J/K/mol
176.21 K, Metastable crystal | 293.28 ± 3.1 J/K/mol
177 K, Crystal 1 | 264.5 ± 2.8 J/K/mol
177.01 K, Crystal 1 | 264.53 ± 2.8 J/K/mol
177.35 K, Crystal 1 | 264.94 ± 2.8 J/K/mol
178.02 K, Metastable crystal | 295.36 ± 3.1 J/K/mol
178.87 K, Crystal 1 | 266.49 ± 2.8 J/K/mol and 266.55 ± 2.8 J/K/mol
179.21 K, Crystal 1 | 266.96 ± 2.8 J/K/mol
179.82 K, Metastable crystal | 297.28 ± 3.1 J/K/mol
180.74 K, Crystal 1 | 268.51 ± 2.8 J/K/mol and 268.63 ± 2.8 J/K/mol
181.08 K, Crystal 1 | 268.91 ± 2.8 J/K/mol
181.62 K, Metastable crystal | 299.18 ± 3.1 J/K/mol
182.6 K, Crystal 1 | 270.65 ± 2.9 J/K/mol
182.94 K, Crystal 1 | 270.99 ± 2.9 J/K/mol
183.43 K, Metastable crystal | 301.07 ± 3.1 J/K/mol
184.47 K, Crystal 1 | 272.64 ± 2.9 J/K/mol
184.8 K, Crystal 1 | 273.01 ± 2.9 J/K/mol
185.23 K, Metastable crystal | 302.81 ± 3.2 J/K/mol
186.33 K, Crystal 1 | 274.72 ± 2.9 J/K/mol
186.66 K, Crystal 1 | 275.06 ± 2.9 J/K/mol
187.02 K, Metastable crystal | 304.48 ± 3.2 J/K/mol
188.19 K, Crystal 1 | 276.76 ± 2.9 J/K/mol
188.51 K, Crystal 1 | 277.07 ± 2.9 J/K/mol
188.82 K, Metastable crystal | 306.1 ± 3.2 J/K/mol
190.05 K, Crystal 1 | 278.78 ± 2.9 J/K/mol and 278.81 ± 2.9 J/K/mol
190.37 K, Crystal 1 | 279.22 ± 2.9 J/K/mol
190.62 K, Metastable crystal | 307.62 ± 3.2 J/K/mol
191.9 K, Crystal 1 | 280.86 ± 2.9 J/K/mol
191.91 K, Crystal 1 | 280.89 ± 2.9 J/K/mol
192.22 K, Crystal 1 | 281.33 ± 2.9 J/K/mol
192.42 K, Metastable crystal | 309.11 ± 3.2 J/K/mol
193.75 K, Crystal 1 | 282.97 ± 3 J/K/mol
193.77 K, Crystal 1 | 283 ± 3 J/K/mol
194.07 K, Crystal 1 | 283.44 ± 3 J/K/mol
194.22 K, Metastable crystal | 310.72 ± 3.1 J/K/mol
195.6 K, Crystal 1 | 285.05 ± 3 J/K/mol
195.62 K, Crystal 1 | 285.05 ± 3 J/K/mol
195.92 K, Crystal 1 | 285.39 ± 3 J/K/mol
196.01 K, Metastable crystal | 311.96 ± 3.1 J/K/mol
197.45 K, Crystal 1 | 286.95 ± 3 J/K/mol
197.47 K, Crystal 1 | 287.13 ± 3 J/K/mol
197.77 K, Crystal 1 | 287.47 ± 3 J/K/mol
197.81 K, Metastable crystal | 313.21 ± 3.4 J/K/mol
199.3 K, Crystal 1 | 289.24 ± 3 J/K/mol
199.32 K, Crystal 1 | 289.18 ± 3 J/K/mol
199.61 K, Crystal 1 | 289.43 ± 3 J/K/mol
199.61 K, Metastable crystal | 314.45 ± 3.4 J/K/mol
201.21 K, Crystal 1 | 291.45 ± 3 J/K/mol
201.24 K, Crystal 1 | 291.48 ± 3 J/K/mol
201.47 K, Metastable crystal | 316.31 ± 3.4 J/K/mol
201.52 K, Crystal 1 | 291.79 ± 3 J/K/mol
203.18 K, Crystal 1 | 293.59 ± 3.1 J/K/mol
203.21 K, Crystal 1 | 293.87 ± 3.1 J/K/mol
203.39 K, Metastable crystal | 317.86 ± 3.4 J/K/mol
203.49 K, Crystal 1 | 293.96 ± 3.1 J/K/mol
205.15 K, Crystal 1 | 295.85 ± 3.1 J/K/mol
205.18 K, Crystal 1 | 296.01 ± 3.1 J/K/mol
